# From PMC8666671, “Fine-tuning spermidine binding modes in the putrescine binding protein PotF” (The Journal of Biological Chemistry, 2021)
# Residue numbers refer to the chain shown, from its start. pKd: −log10 of the molar value. Where “and” joins values, the source holds several entries; their conditions need not be identical. Equal entries are not always repeated.
# Tests used:
# Type in all cases: binding
# [1] = biological target: T1, PotF_Prox (Escherichia coli, UniProt P31133, D247S/D39E/S38T); test: ITC, PotF_Prox (S38T, D39E, D247S); conditions: 293 K, 50 mM Tris pH 8, 300 mM NaCl, biological triplicates
# T1 construct: without the N-terminal signal peptide; made in house; host or cells: E. coli BL21 (DE3)
# T1 sequence (P31133 27-370 S38T/D39E/D247S): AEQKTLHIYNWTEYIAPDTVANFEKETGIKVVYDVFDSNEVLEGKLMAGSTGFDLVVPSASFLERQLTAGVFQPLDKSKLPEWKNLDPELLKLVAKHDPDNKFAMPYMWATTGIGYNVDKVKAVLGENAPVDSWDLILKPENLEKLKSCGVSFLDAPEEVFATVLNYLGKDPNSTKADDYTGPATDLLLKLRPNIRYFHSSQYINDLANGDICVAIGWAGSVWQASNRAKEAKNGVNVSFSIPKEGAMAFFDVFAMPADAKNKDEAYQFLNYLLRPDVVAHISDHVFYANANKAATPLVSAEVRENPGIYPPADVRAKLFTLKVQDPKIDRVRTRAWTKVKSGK
# Description: (§1) Ligands were always freshly prepared in the exact same buffer as was used for the size exclusion run. Samples were degassed, and temperature was equilibrated using a degassing station (TA Instruments). About 400 μl protein sample of different concentrations (Table S5) depending on affinity was transferred into the sample cell of a nanoITC (TA Instruments), and 50 μl of about tenfold concentrated ligand solution was loaded into the injection needle. Multiple injection measurements were carried out at 293 K, 300 rpm stirring rate, and 250 s spacings between each 2 μl injection. The heat quantity past injection was determined by integration of the measured peaks. Every protein–ligand combination was measured as biological triplicate. Subtraction of heat of dilution measurements, peak integration, and one site binding fits were done with NanoAnalyze (TA Instruments). Reported errors are the errors between fits of the measured triplicates.
# [2] = biological target: T2, PotF/D–E39D–F88L (Escherichia coli, UniProt P31133, A182D/D247S/F276W/F88L/L348Q/S38T/S87Y); test: ITC, PotF/D–E39D–F88L; conditions: 293 K
# T2 construct: without the N-terminal signal peptide; made in house; host or cells: E. coli BL21 (DE3)
# T2 sequence (P31133 27-370 S38T/S87Y/F88L/A182D/D247S/F276W/L348Q): T1 sequence (P31133 27-370 S38T/D39E/D247S) with E13D, S61Y, F62L, A156D, F250W, L322Q
# Description: as §1
# [3] = biological target: T3, PotF/D–E39D–Y87S (Escherichia coli, UniProt P31133, A182D/D247S/F276W/L348Q/S38T); test: ITC, PotF/D–E39D–Y87S; conditions: 293 K
# T3 construct: without the N-terminal signal peptide; made in house; host or cells: E. coli BL21 (DE3)
# T3 sequence (P31133 27-370 S38T/A182D/D247S/F276W/L348Q): T1 sequence (P31133 27-370 S38T/D39E/D247S) with E13D, A156D, F250W, L322Q
# Description: as §1
# [4] = biological target: T4, PotF/D–S247D (Escherichia coli, UniProt P31133, A182D/D39E/F276W/L348Q/S38T/S87Y); test: ITC, PotF/D–S247D; conditions: 293 K
# T4 construct: without the N-terminal signal peptide; made in house; host or cells: E. coli BL21 (DE3)
# T4 sequence (P31133 27-370 S38T/D39E/S87Y/A182D/F276W/L348Q): T1 sequence (P31133 27-370 S38T/D39E/D247S) with S61Y, A156D, S221D, F250W, L322Q
# Description: as §1
# [5] = biological target: T5, PotF/D–E39D–Y87S–F88Y (Escherichia coli, UniProt P31133, A182D/D247S/F276W/F88Y/L348Q/S38T); test: ITC, PotF/D–E39D–Y87S–F88Y; conditions: 293 K
# T5 construct: without the N-terminal signal peptide; made in house; host or cells: E. coli BL21 (DE3)
# T5 sequence (P31133 27-370 S38T/F88Y/A182D/D247S/F276W/L348Q): T1 sequence (P31133 27-370 S38T/D39E/D247S) with E13D, F62Y, A156D, F250W, L322Q
# Description: as §1
# [6] = ITC, 50 mM Tris pH 8, 300 mM NaCl, biological triplicates
smiles,measurement,setting,value
"NCCCCN [PUT, putrescine]",KD,[1],abolishes association
"NCCCCNCCCN [SPD, spermidine]",n,[2]; ITC binding stoichiometry,1.03 ± 0.01
same,ΔG,[2]; ITC,-6.71 ± 0.03 kcal/mol
same,ΔH,[2]; ITC,-12.31 ± 0.11 kcal/mol
same,−TΔS,[2]; ITC,5.60 ± 0.13 kcal/mol
same,pKd,[2]; [6],~5.00 and 5.00
same,n,[3]; ITC binding stoichiometry,0.98 ± 0.01
same,ΔG,[3]; ITC,-6.74 ± 0.06 kcal/mol
same,ΔH,[3]; ITC,-6.56 ± 0.13 kcal/mol
same,−TΔS,[3]; ITC,-0.18 ± 0.19 kcal/mol
same,pKd,[3]; [6],5.03
same,n,[4]; ITC binding stoichiometry,0.94 ± 0.01
same,ΔG,[4]; ITC,-6.77 ± 0.18 kcal/mol
same,ΔH,[4]; ITC,-6.76 ± 0.08 kcal/mol
same,−TΔS,[4]; ITC,-0.01 ± 0.25 kcal/mol
same,pKd,[4]; [6],~5.03 and 5.03
same,n,[5]; ITC binding stoichiometry,0.99 ± 0.02
same,ΔG,[5]; ITC,-7.09 ± 0.15 kcal/mol
same,ΔH,[5]; ITC,-7.81 ± 0.21 kcal/mol
same,−TΔS,[5]; ITC,0.71 ± 0.32 kcal/mol
same,pKd,[5]; [6],~5.28 and 5.28 and 5.27
